Laboratory results as given in US9597407B2, “Targeted antimicrobial moieties” (C3 Jian, Inc., priority 2009, dated 2017).
Entries after “also recorded” stand apart in the source; their conditions may differ.

Legend:
[1] = system: microorganisms; assay: Morphology, biofilm and growth disruption by peptides (Table 5); type: cell-based; design: key: A: Peptide aggregates; B: Less hyphal formation; Clumps; Diffuse clumps and small polyps; F: Diffuse growth; H: Thin; I: Growth inhibition; Microcolony formation; Rippled; Small polyps; Thick; W: Halo formation on top, microlonies on bottom
Source text: In certain embodiments peptides that induce alterations in phenotype or other biological activities can also be used as antimicrobial effector moieties.

[2] = system: bacteria; assay: Binding of targeting peptides to microorganisms (Table 3); settings: preferably 1x PBS; for Target(s) (microorganism bound by the targeting peptide) / Target(s) (microorganisms bound by the targeting peptide): peptide binding in aqueous buffers that varied depending on peptide solubility
[3] = microorganism bound by the targeting peptide, binding in aqueous buffers chosen by peptide solubility
[4] = microorganism the targeting peptide binds, binding in aqueous buffers that varied with peptide solubility

## PF-598 (MKFMLEVRNKAISAYKEITRTQI; Peptide with targeting and/or antimicrobial activity)
[1]; C. jejuni
  Organism, effect (morphology, biofilm and growth disruption): C. jejuni (R)
[1]; E. coli
  Organism, effect (morphology, biofilm and growth disruption): E. coli (C)
[1]; E. faecalis
  Organism, effect (morphology, biofilm and growth disruption): E. faecalis (R)
[1]; MRSA
  Organism, effect (morphology, biofilm and growth disruption): MRSA (D)
[1]; S. epidermidis
  Organism, effect (morphology, biofilm and growth disruption): S. epidermidis (R)
[1]; S. pneumoniae
  Organism, effect (morphology, biofilm and growth disruption): S. pneumoniae (R)
[2]
  Target(s) (microorganism bound by the targeting peptide): S. epidermidis and M. luteus and P. mirabilis and P. aeruginosa and C. albicans and MRSA and S. pneumoniae and C. jeikeium

## LSLATFAKIFMTRSNWSLKRFNRL [PF-278]
[1]; C. albicans
  Organism, effect: C. albicans (B)
[1]; M. luteus
  Organism, effect: M. luteus (R)
[1]; S. epidermidis
  Organism, effect: S. epidermidis (I)
[2]; [3]
  Target(s): M. luteus; also recorded: A. baumannii

## PF-294 (DFLVNFLWFKGELNWGKKRYK; Peptide with targeting and/or antimicrobial activity)
[1]; S. epidermidis
  Organism, effect: S. epidermidis (C)
[2]; [3]
  Target(s): S. epidermidis; also recorded: C. difficile

## PF-416 (SKAGLYGKIERSDKRE; Peptide with targeting and/or antimicrobial activity)
[1]; S. pneumoniae
  Organism, effect: S. pneumoniae (H)
[2]
  Target(s) (microorganisms bound by the targeting peptide): S. pneumoniae; also recorded: C. jeikeium

## PF-099 (EIIAYLEGRFANA; Peptide with targeting and/or antimicrobial activity)
[1]; C. jeikeium
  Organism, effect: C. jeikeium (C)
[1]; S. epidermidis
  Organism, effect: S. epidermidis (D)
[2]; [3]
  Target(s): S. epidermidis; also recorded: M. luteus; also recorded: E. coli; also recorded: C. jeikeium

## PF-175 (RRRPAGQRPEKASQAMIAA; Peptide with targeting and/or antimicrobial activity)
[1]; B. subtilis
  Organism, effect: B. subtilis (D)
[1]; C. albicans
  Organism, effect: C. albicans (B)
[1]; C. jejuni
  Organism, effect: C. jejuni (M)
[1]; M. luteus
  Organism, effect: M. luteus (S)
[1]; S. pneumoniae
  Organism, effect: S. pneumoniae (A)
[2]; [3]
  Target(s): S. epidermidis; also recorded: E. faecalis

## PF-414 (LLNKKLE; Peptide with targeting and/or antimicrobial activity)
[1]; S. pneumoniae
  Organism, effect: S. pneumoniae (H)
[2]
  Target(s) (microorganisms bound by the targeting peptide): E. coli; also recorded: C. albicans; also recorded: C. jeikeium

## SFMPEIQKNTIPTQMK [PF-512]
[1]; S. pneumoniae
  Organism, effect (morphology, biofilm and growth disruption): S. pneumoniae (H)
[2]
  Target(s) (microorganisms bound by the targeting peptide): S. pneumoniae; also recorded: C. jeikeium

## PF-297 (ISKGIDDIVYVINKILSIGNIFKIIKRK; Peptide with targeting and/or antimicrobial activity)
[1]; B. subtilis
  Organism, effect: B. subtilis (C)
[1]; S. epidermidis
  Organism, effect: S. epidermidis (C)
[2]; [3]
  Target(s): S. epidermidis; also recorded: B. subtilis; also recorded: B. fragilis

## PF-408 (YCVPLGNMGNMNNKIW; Peptide with targeting and/or antimicrobial activity)
[1]; MRSA
  Organism, effect: MRSA (M)
[1]; S. epidermidis
  Organism, effect: S. epidermidis (M)
[2]
  Target(s) (microorganisms bound by the targeting peptide): S. epidermidis and E. coli and P. aeruginosa and MRSA and E. faecalis and C. jeikeium and C. jejuni

## PF-149 (GKVSVLTRVPRSLGGAPANQ; Peptide with targeting and/or antimicrobial activity)
[1]; MRSA
  Organism, effect: MRSA (H)
[2]; [3]
  Target(s): S. epidermidis and M. luteus and E. coli and MRSA and C. jeikeium

## PF-652 (chain 1 FLAPARPDLQAQRQALAQ; chain 2 FLAPARPDLQAQRQALAQ; Peptide with targeting and/or antimicrobial activity)
[1]; S. pneumoniae
  Organism, effect (morphology, biofilm and growth disruption): S. pneumoniae (A)
[2]
  Target(s) (microorganism bound by the targeting peptide): Mycobacteria spp

## PF-C071 (QVIVKIL; Peptide with targeting and/or antimicrobial activity)
[1]; F. nucleatum
  Organism, effect (morphology, biofilm and growth disruption): F. nucleatum (T)
[2]
  Target(s) (microorganism bound by the targeting peptide): A. naeslundii; also recorded: F. nucleatum; also recorded: S. mutans

## SLQSQLGPCLHDQRH [PF-448]
[1]; S. pneumoniae
  Organism, effect (morphology, biofilm and growth disruption): S. pneumoniae (I)
[2]
  Target(s) (microorganisms bound by the targeting peptide): S. epidermidis; also recorded: M. luteus; also recorded: P. mirabilis; also recorded: E. coli; also recorded: S. pneumoniae; also recorded: E. faecalis; also recorded: C. jeikeium; also recorded: C. jejuni

## PF-433 (MRKEFHNVLSSGQLLADKRPARDYNRK; Peptide with targeting and/or antimicrobial activity)
[1]; S. pneumoniae
  Organism, effect (morphology, biofilm and growth disruption): S. pneumoniae (H)
[2]
  Target(s) (microorganisms bound by the targeting peptide): S. epidermidis; also recorded: E. coli; also recorded: S. pneumoniae; also recorded: C. jeikeium

## KKFKIFVIINWFYHKYIILNFEENF [PF-C085]
[1]; S. mutans
  Organism, effect (morphology, biofilm and growth disruption): S. mutans (F)
[2]
  Target(s) (microorganism bound by the targeting peptide): A. naeslundii; also recorded: F. nucleatum; also recorded: P. gingivalis; also recorded: S. mutans; also recorded: T. denticola

## PF-069 (FDPVPLKKDKSASKHSHKHNH; Peptide with targeting and/or antimicrobial activity)
[1]; B. subtilis
  Organism, effect: B. subtilis (D)
[1]; C. jejuni
  Organism, effect: C. jejuni (R)
[2]; [4]
  Target(s): E. faecalis; also recorded: C. jejuni

## PF-234 (RTPYILRS; Peptide with targeting and/or antimicrobial activity)
[1]; M. luteus
  Organism, effect: M. luteus (T)
[2]; [3]
  Target(s): S. epidermidis; also recorded: M. luteus

## PF-186 (DADKNLSLERDRFAWRVAAP; Peptide with targeting and/or antimicrobial activity)
[1]; C. jeikeium
  Organism, effect: C. jeikeium (A)
[1]; S. epidermidis
  Organism, effect: S. epidermidis (C)
[2]; [3]
  Target(s): S. epidermidis and M. luteus and E. coli and P. aeruginosa and MRSA and C. jeikeium

## NYAVVSHT [PF-209]
[1]; MRSA
  Organism, effect: MRSA (I)
[1]; P. aeruginosa
  Organism, effect: P. aeruginosa (H)
[1]; S. epidermidis
  Organism, effect: S. epidermidis (C)
[2]; [3]
  Target(s): C. albicans; also recorded: C. jeikeium; also recorded: C. jejuni

## ALDCSEQSVILWYETILDKIVGVIK [PF-028]
[1]; C. jeikeium
  Organism, effect: C. jeikeium (M)
[1]; MRSA
  Organism, effect: MRSA (R)
[1]; S. epidermidis
  Organism, effect: S. epidermidis (M)
[2]; [4]
  Target(s): S. epidermidis and M. luteus and MRSA

## PF-070 (SMVKSEIVDLLNGEDNDD; Peptide with targeting and/or antimicrobial activity)
[1]; B. subtilis
  Organism, effect: B. subtilis (D)
[2]; [4]
  Target(s): S. epidermidis; also recorded: C. jejuni

## PF-C057 (YFWWYWVQDCIPYKNNEVWLELSNNMK; Peptide with targeting and/or antimicrobial activity)
[1]; S. mutans
  Organism, effect (morphology, biofilm and growth disruption): S. mutans (I)
[2]
  Target(s) (microorganism bound by the targeting peptide): A. naeslundii; also recorded: F. nucleatum; also recorded: P. gingivalis; also recorded: S. mutans

## PF-687 (chain 1 AKRVLSLAVAPHRRQPVQGT; chain 2 AKRVLSLAVAPHRRQPVQGT; Peptide with targeting and/or antimicrobial activity)
[1]; S. pneumoniae
  Organism, effect (morphology, biofilm and growth disruption): S. pneumoniae (A)
[2]
  Target(s) (microorganism bound by the targeting peptide): Mycobacteria spp

## PF-C084 (FFSVIFLFGLNYLICNSPLFNILR; Peptide with targeting and/or antimicrobial activity)
[1]; F. nucleatum
  Organism, effect (morphology, biofilm and growth disruption): F. nucleatum (T)
[1]; P. gingivalis
  Organism, effect (morphology, biofilm and growth disruption): P. gingivalis (R)
[1]; S. mutans
  Organism, effect (morphology, biofilm and growth disruption): S. mutans (F)
[2]
  Target(s) (microorganism bound by the targeting peptide): A. naeslundii; also recorded: F. nucleatum; also recorded: P. gingivalis; also recorded: S. mutans

## PF-696 (chain 1 IRSGISAAYARPLR; chain 2 IRSGISAAYARPLR; Peptide with targeting and/or antimicrobial activity)
[1]; S. pneumoniae
  Organism, effect (morphology, biofilm and growth disruption): S. pneumoniae (H)
[2]
  Target(s) (microorganism bound by the targeting peptide): Mycobacteria spp

## PF-666 (chain 1 PNRRSRPR; chain 2 PNRRSRPR; Peptide with targeting and/or antimicrobial activity)
[1]; S. pneumoniae
  Organism, effect (morphology, biofilm and growth disruption): S. pneumoniae (A)
[2]
  Target(s) (microorganism bound by the targeting peptide): Mycobacteria spp

## PF-643 (chain 1 VRCRL; chain 2 VRCRL; Peptide with targeting and/or antimicrobial activity)
[1]; E. faecalis
  Organism, effect (morphology, biofilm and growth disruption): E. faecalis (R)
[1]; MRSA
  Organism, effect (morphology, biofilm and growth disruption): MRSA (C)
[1]; S. pneumoniae
  Organism, effect (morphology, biofilm and growth disruption): S. pneumoniae (R)
[2]
  Target(s) (microorganism bound by the targeting peptide): Mycobacteria spp

## PF-428 (ENEESIF; Peptide with targeting and/or antimicrobial activity)
[1]; S. pneumoniae
  Organism, effect (morphology, biofilm and growth disruption): S. pneumoniae (H)
[2]
  Target(s) (microorganisms bound by the targeting peptide): S. epidermidis; also recorded: C. albicans; also recorded: E. faecalis; also recorded: C. jeikeium

## PF-646 (chain 1 APASPGRRPG; chain 2 APASPGRRPG; Peptide with targeting and/or antimicrobial activity)
[1]; C. albicans
  Organism, effect (morphology, biofilm and growth disruption): C. albicans (B)
[1]; S. pneumoniae
  Organism, effect (morphology, biofilm and growth disruption): S. pneumoniae (H)
[2]
  Target(s) (microorganism bound by the targeting peptide): Mycobacteria spp

## DEIKVSDEEIEKFIKENNL [PF-597]
[1]; E. faecalis
  Organism, effect (morphology, biofilm and growth disruption): E. faecalis (A)
[2]
  Target(s) (microorganism bound by the targeting peptide): P. mirabilis

## PF-657 (chain 1 YVANYTITQFGRDFDDRLAVAIHFA; chain 2 YVANYTITQFGRDFDDRLAVAIHFA; Peptide with targeting and/or antimicrobial activity)
[1]; C. jeikeium
  Organism, effect (morphology, biofilm and growth disruption): C. jeikeium (D)
[1]; E. faecalis
  Organism, effect (morphology, biofilm and growth disruption): E. faecalis (D)
[1]; MRSA
  Organism, effect (morphology, biofilm and growth disruption): MRSA (D)
[1]; S. epidermidis
  Organism, effect (morphology, biofilm and growth disruption): S. epidermidis (C)
[1]; S. pneumoniae
  Organism, effect (morphology, biofilm and growth disruption): S. pneumoniae (H)
[2]
  Target(s) (microorganism bound by the targeting peptide): Mycobacteria spp
